Reference: PMC6566782, “Prodrugs for Skin Delivery of Menahydroquinone-4, an Active Form of Vitamin K2(20), Could Overcome the Photoinstability and Phototoxicity of Vitamin K2(20)” (International Journal of Molecular Sciences, 2019)

Assays:
HaCaT cells [1] = assay: Intracellular MKO levels after treatment with sunlight-irradiated MK-4 and MKH derivatives; assay type: cell-based, Human; conditions: 48 h treatment, compound irradiated with sunlight 12,000 lx for 3 h
Procedure: To confirm whether MKH prodrugs could successfully deliver MKH to dermal cells under sunlight, the intracellular level of MKO in HaCaT cells was determined following administration of MK-4 and MKH derivatives in the presence or absence of artificial sunlight irradiation. […] MKO levels were increased after administration of MKH-DMG and MKH-SUC in sunlight, but these were approximately 60% that of the cells treated with their respective compounds in shading conditions.
HaCaT cells were seeded at 5.0 × 10^4 cells/well in 24-well plates and allowed to attach for 48 h. Cells were cultured in medium containing 5 µM MK-4, MKH-DMG, or MKH-SUC, then medium was removed and cells were washed twice with PBS. Cells were collected in 500 µL of PBS and sonicated. Cell homogenates were combined with an equal volume of methanol and three times volume of n-hexane, vortexed for 2 min, and centrifuged at 1750× g for 10 min. The organic layer was evaporated under N2 gas. The residue was reconstituted with 20 μL of methanol, and subjected to LC-MS/MS, as described below. The protein concentration of the cell homogenate was determined using a BCA protein assay kit (Thermo Fisher Scientific, Waltham, MA, USA).
Solutions of 200 µM MK-4, MKH-DMG, or MKH-SUC in ethanol were irradiated with artificial sunlight for 3 h at 12,000 lx in quartz cells. After irradiation, ethanol was evaporated under N2 gas. […]

[2] = Photostability in ethanol under monochromatic light of different wavelengths, LC-MS/MS; assay type: physicochemical; conditions: 1 µM in ethanol, 25 °C
Procedure: To evaluate the effect of irradiation wavelength on photostability of MK-4 and MKH-ester derivatives, 1 μM solutions of MK-4, MKH-DMG, and MKH-SUC in ethanol were irradiated with a xenon light source monochromatic light at 279, 341, 373, 404, or 435 nm, and the concentration of each compound was measured by LC-MS/MS. The log of concentration of each compound was plotted against irradiation energy (Figure 3), and the rates and half-life energies of degradation were obtained from slopes (Table 2). […] Hydrolytic degradations of MKH-DMG and MKH-SUC to their corresponding monoesters were accelerated only at the short wavelength of 279 nm (Figure 3B,C).
Solutions of MK-4 and MKH derivatives in ethanol (1 µM) were irradiated with artificial sunlight (SOLAX 100 W XC-100 B, Seric Ltd., Tokyo, Japan) at 12,000 lx in quartz cells. Illuminance was measured using a digital luminometer (LX-1108, Mother Tool). Irradiation samples (1 µM in ethanol) were irradiated with artificial sunlight at 12,000 lx, and with monochromatic light (279, 341, 373, 404, and 435 nm) using a multi-wavelength irradiation spectrometer (MM 3, Bunkoukeiki Co., Ltd., Tokyo, Japan). Irradiation intensity was measured using an irradiation energy measurement power meter (MM 3, Bunkoukeiki Co., Ltd.).
LC-MS/MS was performed using an LCMS-8050 Liquid Chromatograph Mass Spectrometer (Shimadzu, Kyoto, Japan) and Shimadzu HPLC System (system controller (CBM-20A), pump (LD-20AD), degasser (DGU-20As), UV detector (SPD-20A), and auto injector (SIL-20AC HT)). Separations were performed on a CAPCELL PAK C18 UG120 (3 μm, 2.0 mm × 100 mm, Shiseido Co., Ltd., Tokyo, Japan) using a mobile phase of 10 mmol/L ammonium acetate and 0.1% acetic acid in methanol and water (97:3) at a flow rate of 0.4 mL/min. Column temperature was maintained at 40 °C. The mass spectrometer was equipped with an electrospray ionization and was run in positive ion mode. Identification and quantitation were based on MS/MS-multiple reaction monitoring mode using transition ions as follows: m/z 445 → 187 for the [M+H]^+ MK-4 adduct, m/z 445 → 187 for the [M + H]^+ chromenol adduct, 619 → 58 for the [M + H]^+ MKH-DMG adduct, m/z 532 → 58 for the [M + H]^+ MKH-mono-DMG adduct, m/z 664 → 187 for the [M + H]^+ MKH-SUC adduct, m/z 564 → 187 for the [M + H]^+ MKH-mono-SUC adduct, and m/z 461 → 81 for the [M + H]^+ MKO adduct.

HaCaT cells [3] = assay: Intracellular ROS generation assay (DCFH-DA) with or without UVA irradiation; assay type: cell-based, Human; conditions: UVA irradiation 15 J/cm^2
Procedure: (§1) The in vitro phototoxicity of MK-4 and MKH derivatives were assessed by measuring the intracellular ROS generation and the viability of human epidermal keratinocyte cells (HaCaT) after UVA irradiation in the presence or absence of MK-4 and MKH derivatives. Intracellular ROS generation was determined using the cell permeable probe 2′,7′-dichlorofluorescein diacetate (DCFH-DA), which rapidly reacts with hydroxyl radicals. Cells without drug treatment or UVA irradiation were used as the control. ROS generation and cell viability are shown in Figure 5 and Figure 6, respectively.
Intracellular ROS generation was measured using 2′,7′-dichlorofluorescein diacetate (DCFH-DA; Invitrogen, Carlsbad, CA, USA) as a fluorescent probe. HaCaT cells were seeded at 1.0 × 10^5 cells/well in 96-well plates and cultured overnight. Thereafter, cells were washed with PBS and incubated with 10 µM DCFH-DA solution in PBS at 37 °C for 1 h. Following incubation, test compound solutions in PBS described above were added to each well and re-incubated for 1 h. After incubation, cells were irradiated with UVA at an irradiation intensity of 15 J/cm^2 and the fluorescence intensity (Ex: 485 nm, Em: 530 nm) was measured using an Infinite M200 PRO (Tecan Life Sciences).

HaCaT cells [4] = assay: Cell viability assay (CellTiter-Glo) 24 h after UVA irradiation; assay type: cell-based, Human; conditions: 24 h after UVA irradiation 15 J/cm^2
Procedure: as §1
HaCaT cells were seeded at 1.0 × 10^5 cells/well in 96-well plates and cultured overnight. Thereafter, cells were washed with PBS, and test compound solutions in PBS described above were added to each well and re-incubated for 1 h. After incubation, cells were irradiated with UVA at an irradiation intensity of 15 J/cm^2. After irradiation, cells were washed twice with PBS and replaced in culture medium. After 24 h incubation, cell viability was measured using a CellTiter-Glo® Luminescent Cell Viability Assay (Promega, Madison, WI, USA).

CC(C)=CCC/C(C)=C/CC/C(C)=C/CC/C(C)=C/CC1=C(C)C(=O)c2ccccc2C1=O [MK-4, menaquinone-4, reference compound]
intracellular MKO level after sunlight irradiation compared to shade (HaCaT cells [1]): seriously reduced
rate constant (k) of degradation ([2]; monochromatic light 279 nm): 0.533 J^−1·cm^2
rate constant (k) of degradation ([2]; monochromatic light 341 nm): 0.422 J^−1·cm^2
rate constant (k) of degradation ([2]; monochromatic light 373 nm): 0.151 J^−1·cm^2
rate constant (k) of degradation ([2]; monochromatic light 435 nm): 0.035 J^−1·cm^2
intracellular ROS level (HaCaT cells [3]): elevated in a dose-dependent manner
cell viability (HaCaT cells [4]): decreased dose-dependently
